Measured values published in patent publication US12577234B2, “Antagonists of the muscarinic acetylcholine receptor M4” (Vanderbilt University, priority 2017, dated 2026).

Legend:
[1] = test system: M4 knockout mice; conditions: but not the other four mAChR subtypes; cited from earlier work
[2] = test system: haloperidol-induced catalepsy in mice; experiment: catalepsy induced by the DA receptor antagonist haloperidol; type: in vivo

CN1[C@@H]2C[C@@H](OC(=O)[C@H](CO)c3ccccc3)C[C@H]1[C@@H]1O[C@@H]12 [scopolamine]
locomotor-activating effects [1]: dramatically reduced | reduction of haloperidol-induced catalepsy ([2]; M4KO mice): ineffective in reducing catalepsy | reversal of haloperidol-induced catalepsy ([2]; WT mice): completely reversed
